Source: patent publication US20260053811A1, “METHODS OF TREATING HYPERTENSION IN OBESE SUBJECTS” (Mineralys Therapeutics, Inc., priority 2022, published 2026)
Marks after values point to notes of the source that are not given here.

Test system: hypertensive subjects
Assay: Seated automated office blood pressure (AOBP) in randomized, placebo-controlled, dose-ranging study
Assay type: in vivo, human
Set-up: Difference from placebo in change in blood pressure: unit not given here
Conditions: for Modelled (ANCOVA) LSM (SEM) change from baseline, seated AOBP SBP / LSM Δ with PRA Baseline <1 ng/mL/h, seated AOBP SBP (ANCOVA): 100 mg QD Parts 1 & 2
Description: A randomized, double-blinded, placebo-controlled, dose-ranging, multicenter study was conducted to evaluate the effect of orally administered Compound A HBr on blood pressure for the treatment of hypertension in male and female subjects ≥18 years of age.
The study consists of two parts. For enrollment into Part 1 of the study, a subject's value of plasma renin activity (PRA) must be ≤1 ng/mL/h based on morning measurement. If the value of PRA >1 ng/mL/h based on morning measurement, then subjects may be eligible to enter Part 2 of the study.
For Part 1, 163 enrolled subjects ≥18 years of age were randomized into 6 equal treatment groups (1:1:1:1:1:1) to 12.5 mg BID, 25 mg BID, 12.5 mg QD, 50 mg QD, 100 mg QD, or placebo. After a review of interim clinical data, the 2 lowest dose levels (12.5 mg QD and 12.5 mg BID) were stopped for future randomization due to a lack of consistent meaningful reduction of blood pressure, but the patients randomized to that point remained in the study through completion. Thus, after the review of interim clinical data, subjects were randomized into 4 equal treatment groups (1:1:1:1) to 25 mg BID, 50 mg QD, 100 mg QD, or placebo.
For Part 2, 36 enrolled subjects ≥18 years of age were randomized (5:1) to either 100 mg QD Compound A HBr or placebo such that the Compound A HBr treatment group consisted of approximately 30 subjects and the placebo treatment group will consist of approximately 6 subjects.
Subjects orally administered the assigned study drug (Compound A HBr or placebo) according to the assigned dosing regimen for 8 weeks beginning on Study Day 1. All subjects in Part 1 (regardless of dosing group) received BID dosing to preserve the integrity of the blind; active drug is administered as the morning dose for all QD dose groups. Subjects returned to the research facility or were seen by the clinical investigator or approved home health care professional at the end of Study Weeks 1, 2, 3, 4, 5, 6, 7, and 8 (±2 days) for protocol-defined efficacy and safety assessments and procedures, assessment of adverse events (AEs), and confirmation of compliance with study drug usage. Subjects also completed a telephone visit and blood pressure (BP) check at home approximately 3 days post last dose of study drug. Subjects attended up to 14 full clinic visits, including a pre-Screening visit, a Screening/start of Placebo Run-in visit, a second visit during Placebo Run-in, a clinic visit to initiate the ABPM procedure, a Randomization visit, 8 weekly visits during double-blind treatment, and an end-of-study visit scheduled 4 weeks after the last study treatment for final efficacy and safety assessments.
An automated oscillometric sphygmomanometer device was used to measure the subjects' systolic and diastolic blood pressure in office after approximately 5 minutes of rest in the seated position.
The primary endpoint is the change in office-measured (mean of last 2 of 5 unattended measurements using an automated oscillometric sphygmomanometer device after approximately 5 minutes of rest in the seated position) systolic blood pressure (SBP) from baseline to the end of Study Week 8.
Secondary endpoints of this study were: • (a) Change in 24-hour ambulatory blood pressure monitoring (ABPM) parameters (systolic and diastolic) from baseline to the end of Study Week 7. • (b) Change in office-measured SBP from baseline to the end of Study Weeks 1, 2, 3, 4, 5, 6, and 7. • (c) Change in office-measured diastolic blood pressure (DBP) from baseline to the end of Study Weeks 1, 2, 3, 4, 5, 6, 7, and 8. • (d) Proportion of subjects who achieve office-measured BP of ≤130/80 mm Hg by the end of Study Week 8.

[1] = 100 mg QD Part 2, Week 8, Parts 1 & 2 model, FAS
[2] = PRA Baseline >=1 ng/mL/h, Week 4, FAS
[3] = PRA Baseline >=1 ng/mL/h, Week 8, FAS

Compound: CC(=O)N[C@H]1CC[C@H](NC(=O)CN2CCN(c3nncc(-c4ccc(C)cc4)n3)CC2)CC1 [Compound A HBr]
- LSM Δ with Placebo, change from baseline in seated AOBP SBP (MMRM) (100 mg QD Part 2 (vs 100 mg QD Part 1 per text), Week 8, FAS): 0.74 mmHg
- LSM Δ with 100 mg QD Part 1, seated AOBP DBP (MMRM) (100 mg QD Part 2, Week 4, FAS): −0.43 mmHg
- Modelled (MMRM) LSM (SEM) change from baseline, seated AOBP DBP (100 mg QD Part 2, Week 4, Parts 1 & 2 model, FAS): −6.30 (1.44) mmHg
- Modelled (MMRM) LSM (SEM) change from baseline, seated AOBP DBP [1]: −5.55 (1.42) mmHg
- Modelled (MMRM) LSM (SEM) change from baseline, seated AOBP SBP [1]: −11.35 (2.48) mmHg
- Modelled (ANCOVA) LSM (SEM) change from baseline, seated AOBP SBP (PRA Baseline <1 ng/mL/h, Week 4, FAS): −15.42 (3.12) mmHg
- Modelled (ANCOVA) LSM (SEM) change from baseline, seated AOBP SBP (PRA Baseline <1 ng/mL/h, Week 8, FAS): −11.27 (3.13) mmHg
- LSM Δ with PRA Baseline <1 ng/mL/h, seated AOBP SBP (ANCOVA) [2]: 0.18 mmHg
- Modelled (ANCOVA) LSM (SEM) change from baseline, seated AOBP SBP [2]: −15.24 (2.75) mmHg
- LSM Δ with PRA Baseline <1 ng/mL/h, seated AOBP SBP (ANCOVA) [3]: −2.07 mmHg
- Modelled (ANCOVA) LSM (SEM) change from baseline, seated AOBP SBP [3]: −13.34 (2.52) mmHg
- Difference from placebo in change in blood pressure (100 mg QD, BMI 25-30): −2.6
- Difference from placebo in change in blood pressure (100 mg QD, BMI >30): −13.2*
- Mean placebo-adjusted reduction in AOBP SBP (100 mg QD, Part 1, Week 8): 7.81 mmHg
- Proportion of subjects with AOBP ≤130/80 mmHg (100 mg QD, Part 1, Week 8): 30%
- Proportion of subjects with AOBP ≤130/80 mmHg (100 mg QD, Part 2, Week 8): 54.8%
- Mean reduction in AOBP systolic BP, placebo-corrected, Full-analysis set (100 mg QD, Part-1 and Part-2 (interim) combined, N=58 active): −9.9 mmHg
- Difference from placebo in change in blood pressure (100 mg QD, Thiazide No): −3.3
- Difference from placebo in change in blood pressure (100 mg QD, Thiazide Yes): −11.4*
- Seated AOBP DBP change from baseline (CFB), Mean (SD) (100 mg QD, Week 1, Part 1, FAS): 0.98 (8.29) mmHg
- Seated AOBP DBP, Mean (SD) (100 mg QD, Week 1, Part 1, FAS): 79.70 (11.07) mmHg
- Seated AOBP SBP change from baseline (CFB), Mean (SD) (100 mg QD, Week 1, Part 1, FAS): 0.06 (12.66) mmHg
- Seated AOBP SBP, Mean (SD) (100 mg QD, Week 1, Part 1, FAS): 144.41 (14.54) mmHg
- Seated AOBP DBP change from baseline (CFB), Mean (100 mg QD, Week 1, Part 2, FAS): −5.85 mmHg
- Seated AOBP DBP, Mean (100 mg QD, Week 1, Part 2, FAS): 72.19 mmHg
- Seated AOBP SBP change from baseline (CFB), Mean (100 mg QD, Week 1, Part 2, FAS): −11.35 mmHg
- Seated AOBP SBP, Mean (100 mg QD, Week 1, Part 2, FAS): 129.00 mmHg
- Seated AOBP DBP change from baseline (CFB), Mean (SD) (100 mg QD, Week 2, Part 1, FAS): −2.14 (9.60) mmHg
- Seated AOBP DBP, Mean (SD) (100 mg QD, Week 2, Part 1, FAS): 76.36 (11.90) mmHg
- Seated AOBP SBP change from baseline (CFB), Mean (SD) (100 mg QD, Week 2, Part 1, FAS): −5.64 (16.38) mmHg
- Seated AOBP SBP, Mean (SD) (100 mg QD, Week 2, Part 1, FAS): 139.04 (18.22) mmHg
- Seated AOBP DBP change from baseline (CFB), Mean (100 mg QD, Week 2, Part 2, FAS): −5.13 mmHg
- Seated AOBP DBP, Mean (100 mg QD, Week 2, Part 2, FAS): 73.10 mmHg
- Seated AOBP SBP change from baseline (CFB), Mean (100 mg QD, Week 2, Part 2, FAS): −8.80 mmHg
- Seated AOBP SBP, Mean (100 mg QD, Week 2, Part 2, FAS): 131.33 mmHg
- Seated AOBP DBP change from baseline (CFB), Mean (SD) (100 mg QD, Week 3, Part 1, FAS): −5.48 (9.36) mmHg
- Seated AOBP DBP, Mean (SD) (100 mg QD, Week 3, Part 1, FAS): 72.84 (10.83) mmHg
- Seated AOBP SBP change from baseline (CFB), Mean (SD) (100 mg QD, Week 3, Part 1, FAS): −9.20 (11.37) mmHg
- Seated AOBP SBP, Mean (SD) (100 mg QD, Week 3, Part 1, FAS): 136.56 (14.68) mmHg
- Seated AOBP DBP change from baseline (CFB), Mean (100 mg QD, Week 3, Part 2, FAS): −4.76 mmHg
- Seated AOBP DBP, Mean (100 mg QD, Week 3, Part 2, FAS): 73.72 mmHg
- Seated AOBP SBP change from baseline (CFB), Mean (100 mg QD, Week 3, Part 2, FAS): −8.76 mmHg
- Seated AOBP SBP, Mean (100 mg QD, Week 3, Part 2, FAS): 131.52 mmHg
- LSM Δ with Placebo, seated AOBP DBP (MMRM) (100 mg QD, Week 4, Part 1, FAS): −6.42 mmHg
- Modelled (MMRM) LSM (SEM) change from baseline, seated AOBP DBP (100 mg QD, Week 4, Part 1, FAS): −6.96 (1.48) mmHg
